Results on one compound are retold here after patent US10800781B2, “Compounds useful as inhibitors of ATR kinase” (Vertex Pharmaceuticals Incorporated, priority 2014, dated 2020).

The target of test [1] is T1, full-length ATR (Homo sapiens, UniProt Q13535).
T1 construct: Assays are carried out at 25° C. in the presence of 5 nM full-length ATR
The test is described as follows: ATR inhibition assay (radioactive-phosphate incorporation). The test is classed as biochemical. The settings on record: 5 nM full-length ATR, 10 μM ATP, 800 μM target peptide, 25° C.; read-out: Ki values (Ki(app)) for inhibiting ATR. The protocol:
Compounds can be screened for their ability to inhibit ATR kinase using a radioactive-phosphate incorporation assay. Assays are carried out in a mixture of 50 mM Tris/HCl (pH 7.5), 10 mM MgCl2 and 1 mM DTT. Final substrate concentrations are 10 μM [γ-33P]ATP (3mCi 33P ATP/mmol ATP, Perkin Elmer) and 800 μM target peptide (ASELPASQPQPFSAKKK).
Assays are carried out at 25° C. in the presence of 5 nM full-length ATR. An assay stock buffer solution is prepared containing all of the reagents listed above, with the exception of ATP and the test compound of interest. 13.5 μL of the stock solution is placed in a 96 well plate followed by addition of 2 μL of DMSO stock containing serial dilutions of the test compound (typically starting from a final concentration of 15 μM with 3-fold serial dilutions) in duplicate (final DMSO concentration 7%). The plate is pre-incubated for 10 minutes at 25° C. and the reaction initiated by addition of 15 μL [γ-33P]ATP (final concentration 10 μM).
The reaction is stopped after 24 hours by the addition of 30 μL 0.1M phosphoric acid containing 2 mM ATP. […]
After removing mean background values for all of the data points, Ki(app) data are calculated from non-linear regression analysis of the initial rate data using the Prism software package (GraphPad Prism version 3.0cx for Macintosh, GraphPad Software, San Diego Calif., USA).

In test [2] the test system is HCT116 colorectal cancer cells. Put plainly: Cisplatin sensitization assay, 96 h cell viability (MTS). The test is classed as cell-based. The following applies: compound and Cisplatin added simultaneously. The protocol:
Compounds can be screened for their ability to sensitize HCT116 colorectal cancer cells to Cisplatin using a 96 h cell viability (MTS) assay. […] Compounds and Cisplatin are then both added simultaneously to the cell media in 2-fold serial dilutions from a top final concentration of 10 μM as a full matrix of concentrations in a final cell volume of 200 μl, and the cells are then incubated at 37° C. in 5% CO2. After 96 h, 40 μl of MTS reagent (Promega G358a) is added to each well and the cells are incubated for 1 h at 37° C. in 5% CO2. Finally, absorbance is measured at 490 nm using a SpectraMax Plus 384 reader (Molecular Devices) and the concentration of compound required to reduce the IC50 of Cisplatin alone by at least 3-fold (to 1 decimal place) can be reported.

Some results are limits rather than exact numbers.

T1 sequence (Q13535 whole entry): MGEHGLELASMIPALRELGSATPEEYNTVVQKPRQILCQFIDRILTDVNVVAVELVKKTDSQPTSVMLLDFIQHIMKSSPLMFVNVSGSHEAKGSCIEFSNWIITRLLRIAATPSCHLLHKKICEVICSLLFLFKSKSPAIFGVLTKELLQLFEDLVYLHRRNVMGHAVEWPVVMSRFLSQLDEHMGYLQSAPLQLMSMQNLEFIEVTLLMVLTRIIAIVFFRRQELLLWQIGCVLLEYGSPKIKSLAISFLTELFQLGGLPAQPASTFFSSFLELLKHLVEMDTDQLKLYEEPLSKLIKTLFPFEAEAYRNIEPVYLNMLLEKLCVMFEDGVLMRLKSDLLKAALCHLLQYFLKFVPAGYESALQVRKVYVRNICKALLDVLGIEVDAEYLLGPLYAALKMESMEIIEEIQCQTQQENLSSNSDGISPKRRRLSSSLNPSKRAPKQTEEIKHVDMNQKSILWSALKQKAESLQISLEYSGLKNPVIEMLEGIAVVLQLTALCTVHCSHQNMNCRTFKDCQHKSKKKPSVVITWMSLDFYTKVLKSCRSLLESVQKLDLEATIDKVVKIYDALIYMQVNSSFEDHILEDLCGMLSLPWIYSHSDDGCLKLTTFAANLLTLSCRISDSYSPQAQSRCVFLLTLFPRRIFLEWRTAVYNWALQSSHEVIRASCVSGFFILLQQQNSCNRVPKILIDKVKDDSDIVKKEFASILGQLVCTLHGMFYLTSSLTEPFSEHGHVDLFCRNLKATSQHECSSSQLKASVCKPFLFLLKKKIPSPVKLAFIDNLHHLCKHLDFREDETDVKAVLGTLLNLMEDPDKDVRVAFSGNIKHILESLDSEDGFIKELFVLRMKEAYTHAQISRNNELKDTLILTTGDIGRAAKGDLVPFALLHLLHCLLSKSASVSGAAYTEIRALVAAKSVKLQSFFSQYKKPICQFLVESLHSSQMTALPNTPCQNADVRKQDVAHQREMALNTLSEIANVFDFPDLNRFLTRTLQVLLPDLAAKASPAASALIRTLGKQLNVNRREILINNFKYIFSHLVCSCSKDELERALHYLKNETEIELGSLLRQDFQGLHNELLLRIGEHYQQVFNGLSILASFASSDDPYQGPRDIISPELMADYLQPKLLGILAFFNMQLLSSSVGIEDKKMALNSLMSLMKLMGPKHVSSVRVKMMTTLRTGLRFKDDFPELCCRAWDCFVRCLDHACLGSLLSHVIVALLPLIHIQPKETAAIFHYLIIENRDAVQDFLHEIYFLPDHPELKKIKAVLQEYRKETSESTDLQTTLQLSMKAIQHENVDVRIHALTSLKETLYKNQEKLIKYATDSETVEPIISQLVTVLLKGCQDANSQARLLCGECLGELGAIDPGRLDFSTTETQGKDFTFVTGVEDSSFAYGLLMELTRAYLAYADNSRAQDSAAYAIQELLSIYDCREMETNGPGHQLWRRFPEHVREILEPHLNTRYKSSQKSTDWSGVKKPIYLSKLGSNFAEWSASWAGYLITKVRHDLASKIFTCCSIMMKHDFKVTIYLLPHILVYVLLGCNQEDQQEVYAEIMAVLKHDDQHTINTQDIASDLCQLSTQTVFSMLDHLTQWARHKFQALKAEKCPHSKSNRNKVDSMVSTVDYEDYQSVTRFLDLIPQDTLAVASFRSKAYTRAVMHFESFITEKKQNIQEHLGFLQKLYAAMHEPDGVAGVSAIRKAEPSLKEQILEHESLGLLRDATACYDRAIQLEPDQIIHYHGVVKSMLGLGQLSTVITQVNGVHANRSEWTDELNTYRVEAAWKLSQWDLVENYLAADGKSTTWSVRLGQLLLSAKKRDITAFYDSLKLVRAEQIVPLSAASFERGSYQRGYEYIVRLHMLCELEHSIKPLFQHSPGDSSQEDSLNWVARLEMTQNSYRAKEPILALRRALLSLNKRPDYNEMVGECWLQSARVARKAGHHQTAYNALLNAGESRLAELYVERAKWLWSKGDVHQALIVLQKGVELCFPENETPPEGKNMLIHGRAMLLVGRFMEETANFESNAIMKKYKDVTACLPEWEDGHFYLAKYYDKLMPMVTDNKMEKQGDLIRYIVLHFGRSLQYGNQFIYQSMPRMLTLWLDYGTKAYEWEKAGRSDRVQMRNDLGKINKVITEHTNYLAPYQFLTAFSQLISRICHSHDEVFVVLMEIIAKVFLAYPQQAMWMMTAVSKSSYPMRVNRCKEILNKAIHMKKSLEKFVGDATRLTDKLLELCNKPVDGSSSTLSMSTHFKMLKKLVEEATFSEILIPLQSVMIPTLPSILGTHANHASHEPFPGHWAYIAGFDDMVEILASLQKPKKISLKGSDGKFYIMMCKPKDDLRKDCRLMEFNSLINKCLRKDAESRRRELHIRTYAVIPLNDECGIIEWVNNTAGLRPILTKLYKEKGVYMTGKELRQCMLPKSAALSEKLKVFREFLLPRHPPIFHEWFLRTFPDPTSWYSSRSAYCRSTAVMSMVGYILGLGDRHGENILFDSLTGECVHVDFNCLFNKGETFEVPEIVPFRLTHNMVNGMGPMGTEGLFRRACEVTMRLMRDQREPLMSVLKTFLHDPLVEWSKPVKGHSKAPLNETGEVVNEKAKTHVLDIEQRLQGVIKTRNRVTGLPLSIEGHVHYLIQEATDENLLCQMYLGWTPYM

Turning to `Cn1cncc1-c1c(F)cncc1NC(=O)c1c(N)nn2cc(F)cnc12` [Compound I-1, 2-amino-6-fluoro-N-(5-fluoro-4-(1-methyl-1H-imidazol-5-yl)pyridin-3-yl)pyrazolo[1,5-a]pyrimidine-3-carboxamide], in test [1], the Ki is less than 1000 nM. In test [2], the “Cisplatin sensitization values (concentration of compound required to reduce the IC50 of Cisplatin alone by at least 3-fold)” value is less than 200 nM.
